Entries after “also recorded” stand apart in the source; their conditions may differ.

In series [1] the test system is cortical axons repelled by Sema3A secreted from the ventral spinal cord. Kind of series: Co-culture of cortical slices and ventral spinal cord explants (axon guidance response to Sema3A). It is filed as cell-based, mice. On the procedure: Blocks of cortex were dissected from P0 (postnatal day 0) to P2 mice and cut into 250 μm thick slices with a McIlwain tissue chopper. The ventral part of the cervical spinal cord was dissected and cut into 250 μm thick slices. Co-culture of cortical slices and ventral spinal cord explants were performed in a three-dimensional plasma clot, as described previously (Castellani et al., 2000). Cortical slices were oriented in the plasma clot as indicated in FIG. 1B to give to axons equivalent chances to be deflected away or towards the spinal cord explant. Purified wild-type or mutant L1Fc chimeras were added to the culture medium (3 μg/ml). Inhibitors of the guanylyl cyclase (ODQ, 10^−5 M, Sigma) and NOS (7NI, […], Sigma) were added to the culture medium, either alone or with wild-type L1Fc (3 μg/ml). After one or two days in vitro (DIV), the cultures were fixed with 4% paraformaldehyde (PFA) and analyzed by phase contrast microscopy (Axiovert 35-M, Zeiss). A qualitative guidance index was attributed to the co-cultures, to assess the degree of repulsive (negative values) or attractive (positive values) effects (Castellani et al., 2000). The index ranged from −2 (when most fibers grew away from the spinal cord explant) to +2 (when most fibers grew towards the explant), with intermediate situations (index of −1 and +1 for moderate guidance effects). An index of zero was attributed to the cultures showing no preferential growth. Quantitative analysis of axon length and number of axons growing from cortical slices was performed as described previously (Castellani et al., 2000). A proximal and a distal region, each of them covering a 600 μm-piece of cortical tissue were determined for each culture. All fibers extending from these two regions were counted and the length of the three longest fibers was measured, using computer analysis software (Visiolab 2000, Biocom). Immunofluorescence labeling of axons was performed using the mouse anti-phosphorylated neurofilament antibody SMI31 (Stemberger and Meyer Inc.), and Texas red-conjugated secondary anti-mouse antibody (see result obtained for number of axons and axonal length in the following tables 1 and 2).
It has been previously developed an assay system using explants of ventral spinal cord co-cultured with cortical axons in order to determine the factors involved in axonal repulsion and attraction (Castellani et al., 2000). Using this system we have shown that Sema3A secreted from the ventral spinal cord repels cortical axons. In the presence of soluble wild-type L1Fc chimeric protein however, repulsion is switched to attraction (Castellani et al., […]). In the present study, we aimed to identify the L1 interactions underlying the switching process. As Ig domains have been implicated in binding of Ig CAMs to many of their ligands (Brümmendorf and Rathjen, 1996) we hypothesized that they would also be required for L1 Fc-mediated switching. […] L1 Fc chimeras containing pathological missense mutations affecting specific Ig domains (De Angelis et al., 1999 and FIGS. 1A, 1B) were assessed for their ability to reverse Sema3A repulsion to attraction.

Series [2] relates to Sema3A-induced co-internalization of L1 and NP-1. Kind of series: Immunocytochemical detection of cell-surface L1 and NP-1. Particulars: peptide 10^−5M. The series is classed as cell-based. How it is done: (§1) Neonatal cortical cells or COS7 cells transfected with expression vectors for L1 and NP-1 were incubated for 15 min with Rhodamine-Dextran (2 mg/ml) mixed to a solution of Sema3A-AP supernatant, Sema3A and peptide (10^−5M), peptide alone (10^−5M) or control supernatant. Cells were fixed with PFA 4% and processed for immunocytochemistry as described in the above sections. To detect intracellular proteins, cells were permeabilized with methanol for 2 min.
In parallel, cells submitted to the same treatments were processed for immunocytochemical detection of L1 and NP-1. […] Furthermore, in the Sema3A-treated cultures L1 and NP-1 immunoreactivities were detected after permeabilization, as co-localized cytoplasmic patches (FIGS. 7F-7H).

Series [3] has as its system Sema3A-induced endocytosis in neonatal cortical cells. The experiment in a line: Rhodamine-Dextran uptake in neonatal cortical cells. Conditions: 15 min, peptide 10^−5M. It is filed as cell-based. How it is done: as §1
(§2) Therefore it has been tested whether L1 mimetic peptide was able to block endocytosis. To visualize endocytosis we examined the uptake of Rhodamine-Dextran applied on live cortical cultures in various conditions. Cells were treated for 15 min with Rhodamine-Dextran together with Sema3A alone, Sema3A combined with the L1 mimetic peptide, peptide alone or untreated as control conditions. Strikingly, uptake of Rhodamine-Dextran was exclusively observed when cells were treated with Sema3A alone. Under this condition, spots of internalized fluorescence were observed along axon shafts and surrounding the cell bodies. […] To correlate this process with L1/NP-1 cis and trans interactions, the experiments of Rhodamine-Dextran uptake were performed on COS7 cells transfected to co-express L1 and NP-1 (FIG. 6B).

The test system of a further series is L1/NP-1 complex. Kind of series: Co-immunoprecipitation of the L1/NP-1 complex in presence of peptide. Particulars: Sema3A combined to the peptide. The series is classed as binding. On the procedure:
COS cells were transfected with various expression vectors coding for full-length HA-tagged NP-1, myc-tagged cyt-deleted NP-1, wild-type L1, and L1 mutant constructs (G121S, A426D, L120V) using a lipofection transfection method (lipofectamine). After 2 DIV, cells were lysed with immunoprecipitation buffer (IP buffer: Hepes 25 mM, EDTA 5 mM, MgCl2 1 mM, PMSF 2 mM, glycerol 10% and triton X100 1%, pH 7). The lysate was incubated at 4° C. for 30 min, centrifuged for 5 min and pre-cleared with protein A-Sepharose for 2 hrs at 4° C. Samples were immunoprecipitated with mouse anti-HA (3μl, clone 12CA5, Roche), rabbit anti-L1 antibodies (3 μl), mouse anti-myc antibodies (3 μl, 9E 10, Sigma) coupled to rabbit anti-mouse antibodies on protein A preformed complexes for 16 hrs at 4° C. The beads were washed, and the precipitates analyzed by immunoblot using anti-HA (1:1000) and anti-L1 (1:1000) antibodies.
A possible molecular mechanism by which soluble L1 and its mimetic peptide could exert their modulatory effect on Sema3A signaling is that they compete with transmembrane L1 in the L1/NP-1 complex. To address this issue we examined in immunoprecipitation experiments the L1/NP-1 complex in conditions mimicking either a repulsive (Sema3A alone) or an attractive (Sema3A combined to the peptide) environment. […]

For series [4], the system named is Sema3A-induced endocytosis in COS7 cells co-expressing L1 and NP-1. Kind of series: Rhodamine-Dextran uptake in COS7 cells co-expressing L1 and NP-1. It is filed as cell-based. Particulars: 15 min, peptide 10^−5M. On the procedure:
as §1, §2

In series [5] the target is T1, full-length wild-type human L1 expressed in COS7 cells (human, UniProt P32004 20-1257).
T1 construct: whole, on cells; also called wild-type L1; transmembrane L1
The experiment in a line: immunofluorescence of L1Fc on COS cells expressing wild-type L1.
Experimental: Briefly, COS-7 cells were transiently transfected with 10 μg DNA per 150 mm culture dish, the soluble Fc chimeric protein was allowed to accumulate in the media for 6 days and was recovered and purified by protein A-Sepharose affinity chromatography. In the binding experiments, L1Fcs were cross-linked to anti-human Fc antibodies (50 μg/ml, Jackson Immunoresearch) for 1 hr at 37° C. […] Following incubation, the cells were fixed with 4% PFA, and processed for double-immunofluorescence detection. NP-1 was detected using a mouse anti-c myc antibody (clone 9E10, Sigma) and L1 using a rat monoclonal anti-L1 antibody. […] After secondary antibody incubation, the cells were washed with PBS and mounted in Mowiol (Calbiochem).

Series [6] deals with the molecule itself. The experiment in a line: two-color FACS bead aggregation, mutant to mutant (FIG. 2B).
Experimental: Excess unbound protein was removed by washing with PBS/5% FCS. […] Samples were diluted 1:5000 into ice cold PBS and the proportion of 2 colour aggregates was assessed using a fluorescence activated cell sorter (Becton Dickenson FACSort). […] Every mutant protein was assayed at least 3 separate times and standardised to a wild-type control conducted in parallel.

Sequence of L1/NP-1 complex (O14786 22-923): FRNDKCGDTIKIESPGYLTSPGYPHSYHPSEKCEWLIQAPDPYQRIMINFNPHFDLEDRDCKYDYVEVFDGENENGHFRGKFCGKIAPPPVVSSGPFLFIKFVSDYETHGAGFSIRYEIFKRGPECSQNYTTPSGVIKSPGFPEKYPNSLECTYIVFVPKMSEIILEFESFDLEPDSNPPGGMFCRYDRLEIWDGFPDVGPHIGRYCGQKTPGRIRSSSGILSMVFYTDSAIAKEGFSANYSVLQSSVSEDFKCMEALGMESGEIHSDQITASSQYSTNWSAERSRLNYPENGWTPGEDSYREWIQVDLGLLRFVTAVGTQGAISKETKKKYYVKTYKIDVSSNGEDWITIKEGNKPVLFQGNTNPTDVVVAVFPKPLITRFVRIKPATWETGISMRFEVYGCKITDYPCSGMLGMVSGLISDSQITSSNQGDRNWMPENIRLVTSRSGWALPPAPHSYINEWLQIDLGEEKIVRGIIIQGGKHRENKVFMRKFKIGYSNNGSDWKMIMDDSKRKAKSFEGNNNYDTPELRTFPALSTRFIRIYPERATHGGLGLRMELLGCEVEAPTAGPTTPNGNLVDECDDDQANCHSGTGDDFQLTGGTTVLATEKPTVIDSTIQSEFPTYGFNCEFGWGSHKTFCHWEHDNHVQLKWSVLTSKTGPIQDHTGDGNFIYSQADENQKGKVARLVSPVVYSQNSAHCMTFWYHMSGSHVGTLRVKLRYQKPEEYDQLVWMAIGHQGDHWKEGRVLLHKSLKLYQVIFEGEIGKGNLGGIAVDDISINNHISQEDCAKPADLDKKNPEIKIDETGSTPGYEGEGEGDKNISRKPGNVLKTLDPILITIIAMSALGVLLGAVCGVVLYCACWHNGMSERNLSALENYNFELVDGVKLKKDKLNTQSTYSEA
Sequence of L1/NP-1 complex (P32004 20-1257 partner): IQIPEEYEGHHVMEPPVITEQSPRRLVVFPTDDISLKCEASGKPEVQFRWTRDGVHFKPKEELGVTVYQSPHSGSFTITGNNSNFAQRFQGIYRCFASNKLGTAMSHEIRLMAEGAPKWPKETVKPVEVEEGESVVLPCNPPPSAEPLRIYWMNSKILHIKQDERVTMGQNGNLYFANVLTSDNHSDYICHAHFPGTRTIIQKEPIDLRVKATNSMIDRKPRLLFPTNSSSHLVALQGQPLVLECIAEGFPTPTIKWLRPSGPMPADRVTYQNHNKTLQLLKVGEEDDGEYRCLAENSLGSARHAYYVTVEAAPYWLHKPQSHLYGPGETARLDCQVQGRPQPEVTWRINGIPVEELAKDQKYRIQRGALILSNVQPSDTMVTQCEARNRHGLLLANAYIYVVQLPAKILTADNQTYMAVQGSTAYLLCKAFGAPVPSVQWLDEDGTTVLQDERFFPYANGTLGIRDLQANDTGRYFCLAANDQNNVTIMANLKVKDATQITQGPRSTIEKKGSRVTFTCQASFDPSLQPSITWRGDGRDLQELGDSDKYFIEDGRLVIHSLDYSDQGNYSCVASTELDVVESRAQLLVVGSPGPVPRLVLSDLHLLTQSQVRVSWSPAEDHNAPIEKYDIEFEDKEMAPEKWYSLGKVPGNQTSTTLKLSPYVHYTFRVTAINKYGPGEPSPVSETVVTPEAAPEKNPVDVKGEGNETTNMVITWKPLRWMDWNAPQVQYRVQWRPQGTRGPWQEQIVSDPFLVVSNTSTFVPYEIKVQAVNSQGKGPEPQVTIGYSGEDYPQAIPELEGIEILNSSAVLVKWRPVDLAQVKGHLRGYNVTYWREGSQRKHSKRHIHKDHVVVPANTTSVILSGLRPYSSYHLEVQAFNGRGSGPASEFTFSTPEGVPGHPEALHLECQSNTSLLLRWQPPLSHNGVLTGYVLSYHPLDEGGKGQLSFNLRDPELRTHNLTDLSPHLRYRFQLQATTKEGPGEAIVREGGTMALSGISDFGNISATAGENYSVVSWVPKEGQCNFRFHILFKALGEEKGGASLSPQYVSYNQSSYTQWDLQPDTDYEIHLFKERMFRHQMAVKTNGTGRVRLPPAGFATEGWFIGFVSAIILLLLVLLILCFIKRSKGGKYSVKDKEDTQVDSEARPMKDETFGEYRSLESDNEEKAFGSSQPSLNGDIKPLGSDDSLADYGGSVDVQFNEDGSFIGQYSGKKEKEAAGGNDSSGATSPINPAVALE

“FASNKL (Description of the Artificial sequence Derived from the human amino-acid sequence of L1 Ig1 domain) [FASNKL120, six amino-acid peptide from L1 Ig1 domain]”: in series [1] (peptide at 10^−5 and 10^−6M), the “switching of Sema3A repulsion to attraction by peptide” value is recorded as “switched Sema3A repulsion to attraction”. For the same molecule, in series [1] (peptide at 10^−6M), the “conversion of Sema3A-induced chemorepulsion into attraction by peptide” value was “successfully converted Sema3A-induced chemorepulsion into attraction”. For the same molecule, the “L1 and NP-1 cell surface expression, Sema3A combined with peptide” value in series [2] is given as “the two proteins were detected; also recorded: blocked by the peptide; also recorded: detected on the cell membrane”; in series [2] (listed as switching peptide) it was “this process was blocked”. For the same molecule, the “L1 and NP-1 cell surface expression, peptide alone” value is on record as “cell surface expression was observed” in series [2] and “the two proteins were detected” in series [2] (listed as switching peptide). Further, the “Rhodamine-Dextran uptake, Sema3A combined with peptide” value in series [3] (listed as L1 mimetic peptide) is listed as “blocks Sema3A-induced endocytosis; also recorded: Internalization was blocked”; in series [3] (listed as peptide mimicking soluble L1), “blocks Sema3A-induced endocytosis”; in series [4], “This process was blocked”; in series [4] (listed as mimetic peptide), “but not Sema3A combined with the mimetic peptide induced internalization”. Besides, the “Rhodamine-Dextran uptake, peptide alone” value in series [3] (listed as L1 mimetic peptide) is “no uptake of Rhodamine-Dextran could be detected; also recorded: Uptake of Rhodamine-Dextran was not detected”; in series [4], “no endocytosis could be detected”; in series [4] (listed as mimetic peptide), “No fluorescent labeling was detected”. In addition, the “cis interaction between L1 and NP-1 in presence of the peptide” value with L1/NP-1 complex was “did not abrogate the cis interaction between L1 and NP-1”.

B1: G121S mutant L1Fc chimera (Fc fusion, UniProt P32004 20-1120, looked up)
chain: IQIPEEYEGHHVMEPPVITEQSPRRLVVFPTDDISLKCEASGKPEVQFRWTRDGVHFKPKEELGVTVYQSPHSGSFTITGNNSNFAQRFQGIYRCFASNKLSTAMSHEIRLMAEGAPKWPKETVKPVEVEEGESVVLPCNPPPSAEPLRIYWMNSKILHIKQDERVTMGQNGNLYFANVLTSDNHSDYICHAHFPGTRTIIQKEPIDLRVKATNSMIDRKPRLLFPTNSSSHLVALQGQPLVLECIAEGFPTPTIKWLRPSGPMPADRVTYQNHNKTLQLLKVGEEDDGEYRCLAENSLGSARHAYYVTVEAAPYWLHKPQSHLYGPGETARLDCQVQGRPQPEVTWRINGIPVEELAKDQKYRIQRGALILSNVQPSDTMVTQCEARNRHGLLLANAYIYVVQLPAKILTADNQTYMAVQGSTAYLLCKAFGAPVPSVQWLDEDGTTVLQDERFFPYANGTLGIRDLQANDTGRYFCLAANDQNNVTIMANLKVKDATQITQGPRSTIEKKGSRVTFTCQASFDPSLQPSITWRGDGRDLQELGDSDKYFIEDGRLVIHSLDYSDQGNYSCVASTELDVVESRAQLLVVGSPGPVPRLVLSDLHLLTQSQVRVSWSPAEDHNAPIEKYDIEFEDKEMAPEKWYSLGKVPGNQTSTTLKLSPYVHYTFRVTAINKYGPGEPSPVSETVVTPEAAPEKNPVDVKGEGNETTNMVITWKPLRWMDWNAPQVQYRVQWRPQGTRGPWQEQIVSDPFLVVSNTSTFVPYEIKVQAVNSQGKGPEPQVTIGYSGEDYPQAIPELEGIEILNSSAVLVKWRPVDLAQVKGHLRGYNVTYWREGSQRKHSKRHIHKDHVVVPANTTSVILSGLRPYSSYHLEVQAFNGRGSGPASEFTFSTPEGVPGHPEALHLECQSNTSLLLRWQPPLSHNGVLTGYVLSYHPLDEGGKGQLSFNLRDPELRTHNLTDLSPHLRYRFQLQATTKEGPGEAIVREGGTMALSGISDFGNISATAGENYSVVSWVPKEGQCNFRFHILFKALGEEKGGASLSPQYVSYNQSSYTQWDLQPDTDYEIHLFKERMFRHQMAVKTNGTGRVRLPPAGFATE
notes: also called G121S-L1Fc; not shown: immunoglobulin Fc, human
For the molecule B1, the results for the binding result in series [5] and in series [6] were “no binding” and “binds”, respectively.

The values above are taken from patent US20060058504A1, “Peptides capable of inducing attraction to the axonal growth and their use for treating neurodegenerative diseases” (Centre National de la Recherche Scientific (CNRS), priority 2002, published 2006).
